# Results taken from ChEMBL document CHEMBL5154765, “Design, synthesis, and biological evaluation of novel spiro[pyrrolidine-2,3'-quinolin]-2'-one derivatives as potential chitin synthase inhibitors and antifungal agents” (Eur J Med Chem, 2022).
# Active and inactive are the calls of the source. No cut-off for these calls is given here.
# How the values were obtained:
# Candida tropicalis [1] = assay: Inhibition of Candida tropicalis ATCC750 chitin synthase at 300 ug/ml using UDP-GlcNAc as substrate incubated for 1 hr by microplate reader analysis relative to control; settings: dose 300.0 µg/ml
# [2] = Inhibition of Candida tropicalis ATCC750 chitin synthase using UDP-GlcNAc as substrate incubated for 1 hr by microplate reader analysis
# [3] = Binding affinity to Candida tropicalis ATCC750 chitin synthase assessed as inhibition constant using UDP-GlcNAc as substrate incubated for 10 hrs by Lineweaver-burk plot analysis
# Candida albicans [4] = assay: Antifungal activity against Candida albicans ATCC 76615 assessed as reduction in fungal growth incubated for 24 hrs by two fold broth dilution method; format: functional
# Aspergillus flavus [5] = assay: Antifungal activity against Aspergillus flavus ATCC 16870 assessed as reduction in fungal growth incubated for 24 hrs by two fold broth dilution method; format: functional
# Aspergillus fumigatus [6] = assay: Antifungal activity against Aspergillus fumigatus GIMCC 3.19 assessed as reduction in fungal growth incubated for 24 hrs by two fold broth dilution method; format: functional
# Cryptococcus neoformans [7] = assay: Antifungal activity against Cryptococcus neoformans ATCC 32719 assessed as reduction in fungal growth incubated for 24 hrs by two fold broth dilution method; format: functional
# Candida albicans [8] = assay: Antifungal activity against Candida albicans ATCC 76615 assessed as reduction in fungal growth in presence of sorbitol incubated for 24 hrs by two fold broth dilution method; format: functional
# Aspergillus flavus [9] = assay: Antifungal activity against Aspergillus flavus ATCC 16870 assessed as reduction in fungal growth in presence of sorbitol incubated for 24 hrs by two fold broth dilution method; format: functional
# Aspergillus fumigatus [10] = assay: Antifungal activity against Aspergillus fumigatus GIMCC 3.19 assessed as reduction in fungal growth in presence of sorbitol incubated for 24 hrs by two fold broth dilution method; format: functional
# Cryptococcus neoformans [11] = assay: Antifungal activity against Cryptococcus neoformans ATCC 32719 assessed as reduction in fungal growth in presence of sorbitol incubated for 24 hrs by two fold broth dilution method; format: functional
# Candida albicans [12] = assay: Antifungal activity against fluconazole resistant Candida albicans ATCC 76615 assessed as reduction in fungal growth incubated for 24 hrs by two fold broth dilution method; format: functional
# Aspergillus flavus [13] = assay: Antifungal activity against fluconazole resistant Aspergillus flavus ATCC 16870 assessed as reduction in fungal growth incubated for 24 hrs by two fold broth dilution method; format: functional
# Aspergillus fumigatus [14] = assay: Antifungal activity against fluconazole resistant Aspergillus fumigatus GIMCC 3.19 assessed as reduction in fungal growth incubated for 24 hrs by two fold broth dilution method; format: functional
# Cryptococcus neoformans [15] = assay: Antifungal activity against fluconazole resistant Cryptococcus neoformans ATCC 32719 assessed as reduction in fungal growth incubated for 24 hrs by two fold broth dilution method; format: functional
# Candida albicans [16] = assay: Antifungal activity against micafungin resistant Candida albicans ATCC 76615 assessed as reduction in fungal growth incubated for 24 hrs by two fold broth dilution method; format: functional
# Candida albicans [17] = assay: Antifungal activity against Candida albicans ATCC 76615 incubated for 72 hrs in presence of fluconazole by checker board assay; format: functional
# Aspergillus flavus [18] = assay: Antifungal activity against Aspergillus flavus ATCC 16870 incubated for 72 hrs in presence of fluconazole by checker board assay; format: functional
# Aspergillus fumigatus [19] = assay: Antifungal activity against Aspergillus fumigatus GIMCC 3.19 incubated for 72 hrs in presence of fluconazole by checker board assay; format: functional
# Cryptococcus neoformans [20] = assay: Antifungal activity against Cryptococcus neoformans ATCC 32719 incubated for 72 hrs in presence of fluconazole by checker board assay; format: functional
# Candida albicans [21] = assay: Antifungal activity against Candida albicans ATCC 76615 assessed as fluconazole MIC incubated for 72 hrs by checker board assay; format: functional
# Aspergillus flavus [22] = assay: Antifungal activity against Aspergillus flavus ATCC 16870 assessed as fluconazole MIC incubated for 72 hrs by checker board assay; format: functional
# Aspergillus fumigatus [23] = assay: Antifungal activity against Aspergillus fumigatus GIMCC 3.19 assessed as fluconazole MIC incubated for 72 hrs by checker board assay; format: functional
# Cryptococcus neoformans [24] = assay: Antifungal activity against Cryptococcus neoformans ATCC 32719 assessed as fluconazole MIC incubated for 72 hrs by checker board assay; format: functional
# Cryptococcus neoformans [25] = assay: Synergistic antifungal activity against Cryptococcus neoformans ATCC 32719 assessed as fractional inhibitory concentration index incubated for 72 hrs in presence of fluconazole by checker board assay; format: functional
# Candida albicans [26] = assay: Synergistic antifungal activity against Candida albicans ATCC 76615 assessed as fractional inhibitory concentration index incubated for 72 hrs in presence of fluconazole by checker board assay; format: functional
# Aspergillus flavus [27] = assay: Synergistic antifungal activity against Aspergillus flavus ATCC 16870 assessed as fractional inhibitory concentration index incubated for 72 hrs in presence of fluconazole by checker board assay; format: functional
# Aspergillus fumigatus [28] = assay: Synergistic antifungal activity against Aspergillus fumigatus GIMCC 3.19 assessed as fractional inhibitory concentration index incubated for 72 hrs in presence of fluconazole by checker board assay; format: functional
# Candida albicans [29] = assay: Antifungal activity against Candida albicans ATCC 76615 incubated for 72 hrs in presence of polyoxin B by checker board assay; format: functional
# Aspergillus flavus [30] = assay: Antifungal activity against Aspergillus flavus ATCC 16870 incubated for 72 hrs in presence of polyoxin B by checker board assay; format: functional
# Aspergillus fumigatus [31] = assay: Antifungal activity against Aspergillus fumigatus GIMCC 3.19 incubated for 72 hrs in presence of polyoxin B by checker board assay; format: functional
# Cryptococcus neoformans [32] = assay: Antifungal activity against Cryptococcus neoformans ATCC 32719 incubated for 72 hrs in presence of polyoxin B by checker board assay; format: functional
# Candida albicans [33] = assay: Synergistic antifungal activity against Candida albicans ATCC 76615 assessed as fractional inhibitory concentration index incubated for 72 hrs in presence of polyoxin B by checker board assay; format: functional
# Aspergillus flavus [34] = assay: Synergistic antifungal activity against Aspergillus flavus ATCC 16870 assessed as fractional inhibitory concentration index incubated for 72 hrs in presence of polyoxin B by checker board assay; format: functional
# Aspergillus fumigatus [35] = assay: Synergistic antifungal activity against Aspergillus fumigatus GIMCC 3.19 assessed as fractional inhibitory concentration index incubated for 72 hrs in presence of polyoxin B by checker board assay; format: functional
# Cryptococcus neoformans [36] = assay: Synergistic antifungal activity against Cryptococcus neoformans ATCC 32719 assessed as fractional inhibitory concentration index incubated for 72 hrs in presence of polyoxin B by checker board assay; format: functional
# Candida tropicalis [37] = assay: Noncompetitive inhibition of Candida tropicalis ATCC750 assessed as decrease in Vmax with constant Km at 0.05 to 0.15 mM using UDP-GlcNAc as substrate incubated for 10 hrs by Lineweaver-burk plot analysis; settings: dose 0.05-0.15 mM
# Candida albicans [38] = assay: Antifungal activity against Candida albicans ATCC 76615 assessed as polyoxin B MIC incubated for 72 hrs by checker board assay; format: functional
# Aspergillus flavus [39] = assay: Antifungal activity against Aspergillus flavus ATCC 16870 assessed as polyoxin B MIC incubated for 72 hrs by checker board assay; format: functional
# Aspergillus fumigatus [40] = assay: Antifungal activity against Aspergillus fumigatus GIMCC 3.19 assessed as polyoxin B MIC incubated for 72 hrs by checker board assay; format: functional
# Cryptococcus neoformans [41] = assay: Antifungal activity against Cryptococcus neoformans ATCC 32719 assessed as polyoxin B MIC incubated for 72 hrs by checker board assay; format: functional
smiles,measurement,setting,value
O=C(/C=C/C(=O)N1CCCC12Cc1ccccc1NC2=O)Nc1cccc([N+](=O)[O-])c1 (stereo unspecified),inhibition,Candida tropicalis [1],83.4%
same,IC50,[2],100 µM
same,Ki,[3],110 µM
same,MIC,Candida albicans [4],2 µg/mL
same,MIC,Aspergillus flavus [5],4 µg/mL
same,MIC,Aspergillus fumigatus [6],4 µg/mL
same,MIC,Cryptococcus neoformans [7],8 µg/mL
same,MIC,Candida albicans [8],16 µg/mL
same,MIC,Aspergillus flavus [9],64 µg/mL
same,MIC,Aspergillus fumigatus [10],128 µg/mL
same,MIC,Cryptococcus neoformans [11],64 µg/mL
same,MIC,Candida albicans [12],32 µg/mL
same,MIC,Aspergillus flavus [13],32 µg/mL
same,MIC,Aspergillus fumigatus [14],32 µg/mL
same,MIC,Cryptococcus neoformans [15],64 µg/mL
same,MIC,Candida albicans [16],32 µg/mL
same,MIC,Candida albicans [17],1 µg/mL
same,MIC,Aspergillus flavus [18],2 µg/mL
same,MIC,Aspergillus fumigatus [19],0.5 µg/mL
same,MIC,Cryptococcus neoformans [20],4 µg/mL
same,MIC,Candida albicans [21],1 µg/mL
same,MIC,Aspergillus flavus [22],1 µg/mL
same,MIC,Aspergillus fumigatus [23],4 µg/mL
same,MIC,Cryptococcus neoformans [24],1 µg/mL
same,fractional inhibitory concentration index (FICI),Cryptococcus neoformans [25],0.63
same,fractional inhibitory concentration index (FICI),Candida albicans [26],0.75
same,fractional inhibitory concentration index (FICI),Aspergillus flavus [27],0.63
same,fractional inhibitory concentration index (FICI),Aspergillus fumigatus [28],1.13
same,MIC,Candida albicans [29],2 µg/mL
same,MIC,Aspergillus flavus [30],4 µg/mL
same,MIC,Aspergillus fumigatus [31],4 µg/mL
same,MIC,Cryptococcus neoformans [32],4 µg/mL
same,fractional inhibitory concentration index (FICI),Candida albicans [33],1.5
same,fractional inhibitory concentration index (FICI),Aspergillus flavus [34],1.5
same,fractional inhibitory concentration index (FICI),Aspergillus fumigatus [35],1.5
same,fractional inhibitory concentration index (FICI),Cryptococcus neoformans [36],0.75
same,inhibition,Candida tropicalis [37],Active
same,MIC,Candida albicans [38],4 µg/mL
same,MIC,Aspergillus flavus [39],4 µg/mL
same,MIC,Aspergillus fumigatus [40],4 µg/mL
same,MIC,Cryptococcus neoformans [41],4 µg/mL
